This note sets out measurements from ChEMBL document CHEMBL1165959, “Novel tricyclic Delta(2)-isoxazoline and 3-oxo-2-methyl-isoxazolidine derivatives: synthesis and binding affinity at neuronal nicotinic acetylcholine receptor subtypes” (Bioorg Med Chem, 2010).

For assay [1], the target named is Neuronal acetylcholine receptor subunit alpha-7 (Rattus norvegicus, UniProt Q05941). As to the kind of experiment: Displacement of [125I]alpha-Bungarotoxin from alpha7 nAChR in rat cortical membrane. It counts as cell membranes. In general terms: In a radioligand displacement assay an active substance lowers the binding of a labelled ligand.
Assay [2] addresses Neuronal acetylcholine receptor; alpha4/beta2 (Rattus norvegicus, UniProt P09483+P12390). As to the kind of experiment: Displacement of (+/-)-[3H]epibatidine from alpha4beta2 nAChR in rat cortical membrane. The class given is cell membranes.

Sequence of Neuronal acetylcholine receptor subunit alpha-7 (Q05941 whole entry): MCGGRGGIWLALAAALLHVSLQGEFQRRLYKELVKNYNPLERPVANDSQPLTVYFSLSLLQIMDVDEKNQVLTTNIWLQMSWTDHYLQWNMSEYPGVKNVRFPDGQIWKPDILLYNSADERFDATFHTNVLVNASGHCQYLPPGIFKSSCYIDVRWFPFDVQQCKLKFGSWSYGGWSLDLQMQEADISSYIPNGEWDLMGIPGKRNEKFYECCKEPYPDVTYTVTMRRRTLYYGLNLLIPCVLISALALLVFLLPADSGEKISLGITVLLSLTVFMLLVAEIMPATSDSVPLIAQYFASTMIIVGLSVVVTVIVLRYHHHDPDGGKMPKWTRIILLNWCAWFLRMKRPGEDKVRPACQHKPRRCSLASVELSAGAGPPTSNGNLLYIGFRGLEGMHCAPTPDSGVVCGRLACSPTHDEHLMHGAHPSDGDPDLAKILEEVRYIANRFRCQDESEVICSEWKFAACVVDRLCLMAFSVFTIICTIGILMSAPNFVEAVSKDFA
Sequence of Neuronal acetylcholine receptor; alpha4/beta2 (P09483 whole entry): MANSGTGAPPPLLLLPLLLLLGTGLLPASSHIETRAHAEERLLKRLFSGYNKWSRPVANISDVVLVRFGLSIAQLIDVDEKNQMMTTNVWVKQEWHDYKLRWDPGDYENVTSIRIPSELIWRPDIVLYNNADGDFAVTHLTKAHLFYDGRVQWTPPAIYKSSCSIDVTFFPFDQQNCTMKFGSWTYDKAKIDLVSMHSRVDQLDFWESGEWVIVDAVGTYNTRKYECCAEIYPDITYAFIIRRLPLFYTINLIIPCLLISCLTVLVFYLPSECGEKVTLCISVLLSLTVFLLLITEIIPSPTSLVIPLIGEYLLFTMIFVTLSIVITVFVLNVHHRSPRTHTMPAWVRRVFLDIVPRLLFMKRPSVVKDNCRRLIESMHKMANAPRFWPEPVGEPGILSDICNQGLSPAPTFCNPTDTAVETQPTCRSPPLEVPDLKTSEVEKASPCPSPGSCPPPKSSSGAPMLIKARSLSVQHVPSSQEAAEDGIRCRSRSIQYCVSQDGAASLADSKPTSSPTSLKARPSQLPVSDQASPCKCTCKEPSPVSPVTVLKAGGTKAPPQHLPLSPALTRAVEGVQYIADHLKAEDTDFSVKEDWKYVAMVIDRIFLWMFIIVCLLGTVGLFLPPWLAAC
Sequence of Neuronal acetylcholine receptor; alpha4/beta2 (P12390 whole entry): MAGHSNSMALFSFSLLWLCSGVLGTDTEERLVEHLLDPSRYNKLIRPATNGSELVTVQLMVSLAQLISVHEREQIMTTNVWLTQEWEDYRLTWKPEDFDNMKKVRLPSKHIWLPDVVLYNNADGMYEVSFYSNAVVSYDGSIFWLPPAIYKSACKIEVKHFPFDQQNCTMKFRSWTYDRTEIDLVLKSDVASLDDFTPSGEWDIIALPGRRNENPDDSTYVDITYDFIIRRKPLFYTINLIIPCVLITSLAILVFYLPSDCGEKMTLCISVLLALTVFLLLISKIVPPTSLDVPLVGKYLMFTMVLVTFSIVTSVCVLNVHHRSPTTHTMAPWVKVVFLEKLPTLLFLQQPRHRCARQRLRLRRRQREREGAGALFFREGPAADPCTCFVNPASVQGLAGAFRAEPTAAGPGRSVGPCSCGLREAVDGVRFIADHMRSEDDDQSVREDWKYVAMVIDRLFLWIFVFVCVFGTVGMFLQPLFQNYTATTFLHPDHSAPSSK

In the case of `BrC1=NOC2CC3CNCC(C3)C12` (centres undefined), the Ki – broadly, a dissociation constant, usually derived from enzyme kinetics or from competition with a known ligand – in assay [1] was 28.5 µM; in assay [2], 0.92 µM.

As for `COC1=NOC2C3CCC(CC12)N3` (centres undefined), the Ki in assay [1] amounted to 28.2 µM; in assay [2], 4.5 µM.

Consider `CN1OC2CC3CNCC(C3)C2C1=O` (centres undefined), for which the Ki in assay [1] was over 100 µM; in assay [2], 79 µM.

For the compound `BrC1=NOC2C3CCC(CC12)N3` (centres undefined), the Ki in assay [1] was found to be 20 µM; in assay [2] it was 0.75 µM.

Consider `COC1=NOC2CC3CCC(N3)C12` (centres undefined), for which the Ki in assay [1] was 68 µM; in assay [2], 53 µM.

`CC(=O)C1=CC[C@H]2CC[C@@H]1N2`: the figures for the Ki in assay [1] and in assay [2] were over 10 µM and 0.094 µM, respectively.

Regarding `BrC1=NOC2CC3CCC(N3)C12` (centres undefined), the Ki in assay [1] came out at 109 µM; in assay [2], 260 µM.

Consider `CN1OC2C3CNCC(C3)CC2C1=O` (centres undefined), for which the inhibition constant Ki in assay [1] turned out to be 9.5 µM; in assay [2] it was 1.8 µM.

With `CN1OC2CC3CCC(N3)C2C1=O` (centres undefined), the results for the Ki in assay [1] and in assay [2] were over 100 µM and 50 µM, respectively.

With `CN1OC2C3CCC(CC2C1=O)N3` (centres undefined), the results for the Ki in assay [1] and in assay [2] were over 100 µM and 100 µM, respectively.

As for `COC1=NOC2CC3CNCC(C3)C12` (centres undefined), the Ki in assay [1] was 170 µM; in assay [2] it was 31 µM.

In the case of `O=c1cccc2n1C[C@@H]1CNC[C@H]2C1` [CYTISINICLINE], the Ki turned out to be 0.3 µM in assay [1] and 0.0004 µM in assay [2].
